# Data published in ChEMBL document CHEMBL6096649, “Enantiomeric C-6 fluorinated swainsonine derivatives as highly selective and potent inhibitors of α-mannosidase and α-l-rhamnosidase: Design, synthesis and structure-activity relationship study” (Eur J Med Chem, 2025).
# Tests used:
# [1] = molecular target: Alpha-glucosidase (Saccharomyces cerevisiae S288c) (UniProt P53341+P38158+P07265); test: Inhibition of yeast Alpha-glucosidase using p-nitrophenyl glycoside as substrate assessed as p-nitrophenol release at 1000 uM by spectrometric analysis relative to control; type: protein assay
# [2] = test system: Oryza sativa; test: Inhibition of rice Alpha-glucosidase using p-nitrophenyl glycoside as substrate assessed as p-nitrophenol release at 1000 uM by spectrometric analysis relative to control
# [3] = organism: Rattus norvegicus; test: Inhibition of rat intestinal Alpha-glucosidase using p-nitrophenyl glycoside as substrate assessed as p-nitrophenol release at 1000 uM by spectrometric analysis relative to control
# [4] = molecular target: Alpha glucosidase (Homo sapiens) (UniProt O43451+P10253+P14410+Q2M2H8); test: Inhibition of human Alpha-glucosidase using p-nitrophenyl glycoside as substrate assessed as p-nitrophenol release at 1000 uM by spectrometric analysis relative to control; type: protein assay
# [5] = test system: Prunus dulcis; test: Inhibition of almond Beta-glucosidase using p-nitrophenyl glycoside as substrate assessed as release of p-nitrophenol at 1000 uM by spectrometric analysis relative to control
# [6] = organism: Bos taurus; test: Inhibition of bovine liver beta-glucosidase using p-nitrophenyl glycoside as substrate assessed as release of p-nitrophenol at 1000 uM by spectrometric analysis relative to control
# [7] = organism: Homo sapiens; test: Inhibition of human lysosome beta-glucosidase using p-nitrophenyl glycoside as substrate assessed as release of p-nitrophenol at 1000 uM by spectrometric analysis relative to control
# [8] = molecular target: Alpha-galactosidase (Coffea arabica) (UniProt Q42656); test: Inhibition of coffee bean alpha-galactosidase using p-nitrophenyl glycoside as substrate assessed as release of p-nitrophenol at 1000 uM by spectrometric analysis relative to control
# Alpha-galactosidase (Coffea arabica), sequence (Q42656 16-378 limits assumed): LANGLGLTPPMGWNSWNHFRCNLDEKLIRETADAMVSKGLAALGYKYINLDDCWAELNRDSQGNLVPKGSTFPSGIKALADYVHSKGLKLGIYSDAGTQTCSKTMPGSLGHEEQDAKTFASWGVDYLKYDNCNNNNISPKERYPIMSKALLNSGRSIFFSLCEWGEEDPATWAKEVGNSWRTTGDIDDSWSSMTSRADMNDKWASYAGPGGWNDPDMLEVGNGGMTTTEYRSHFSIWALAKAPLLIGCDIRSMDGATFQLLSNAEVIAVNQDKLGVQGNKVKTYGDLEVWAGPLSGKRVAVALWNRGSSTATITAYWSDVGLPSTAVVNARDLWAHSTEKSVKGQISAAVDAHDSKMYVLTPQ
# [9] = organism: Bos taurus; test: Inhibition of bovine liver beta-galactosidase using p-nitrophenyl glycoside as substrate assessed as release of p-nitrophenol at 1000 uM by spectrometric analysis relative to control
# [10] = molecular target: T1, Alpha-mannosidase (Canavalia ensiformis) (UniProt C0HJB3); test: Inhibition of jack bean alpha-mannosidase using p-nitrophenyl glycoside as substrate assessed as release of p-nitrophenol at 1000 uM by spectrometric analysis relative to control
# T1 sequence (whole entry): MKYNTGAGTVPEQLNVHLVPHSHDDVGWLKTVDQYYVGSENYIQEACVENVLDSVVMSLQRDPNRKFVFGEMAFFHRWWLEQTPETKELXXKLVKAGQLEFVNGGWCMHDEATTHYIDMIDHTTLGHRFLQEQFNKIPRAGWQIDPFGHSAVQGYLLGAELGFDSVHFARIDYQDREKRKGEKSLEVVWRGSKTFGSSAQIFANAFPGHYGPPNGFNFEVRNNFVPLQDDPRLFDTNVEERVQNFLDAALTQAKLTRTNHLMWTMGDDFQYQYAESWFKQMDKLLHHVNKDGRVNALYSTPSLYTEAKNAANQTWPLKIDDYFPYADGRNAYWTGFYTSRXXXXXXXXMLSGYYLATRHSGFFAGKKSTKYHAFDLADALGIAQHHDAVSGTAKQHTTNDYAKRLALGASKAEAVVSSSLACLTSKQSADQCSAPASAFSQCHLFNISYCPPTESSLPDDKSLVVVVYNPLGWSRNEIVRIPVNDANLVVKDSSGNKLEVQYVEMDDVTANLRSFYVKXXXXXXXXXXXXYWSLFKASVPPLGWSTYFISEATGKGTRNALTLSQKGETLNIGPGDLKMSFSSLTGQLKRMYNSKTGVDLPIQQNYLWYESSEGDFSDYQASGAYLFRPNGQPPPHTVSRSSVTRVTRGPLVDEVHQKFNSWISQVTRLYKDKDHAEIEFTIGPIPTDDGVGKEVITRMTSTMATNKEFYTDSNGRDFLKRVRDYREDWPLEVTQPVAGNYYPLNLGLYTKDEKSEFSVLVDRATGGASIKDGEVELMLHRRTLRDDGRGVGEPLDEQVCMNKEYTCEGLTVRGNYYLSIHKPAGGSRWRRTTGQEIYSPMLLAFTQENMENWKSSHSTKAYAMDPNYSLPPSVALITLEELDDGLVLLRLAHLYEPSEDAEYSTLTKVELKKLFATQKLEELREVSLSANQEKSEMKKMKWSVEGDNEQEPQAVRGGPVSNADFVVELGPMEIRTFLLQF
# [11] = test system: Helix pomatia; test: Inhibition of snail beta-mannosidase using p-nitrophenyl glycoside as substrate assessed as release of p-nitrophenol at 1000 uM by spectrometric analysis relative to control
# [12] = organism: Sus scrofa; test: Inhibition of porcine kidney Alpha alpha-trehalase using p-nitrophenyl glycoside as substrate assessed as release of p-nitrophenol at 1000 uM by spectrometric analysis relative to control
# [13] = test system: Aspergillus niger; test: Inhibition of Aspergillus niger amyloglucosidase using p-nitrophenyl glycoside as substrate assessed as release of p-nitrophenol at 1000 uM by spectrometric analysis relative to control
# [14] = test system: Penicillium decumbens; test: Inhibition of Penicillium decumbens alpha-L-rhamnosidase using p-nitrophenyl glycoside as substrate assessed as release of p-nitrophenol at 1000 uM by spectrometric analysis relative to control
# [15] = test system: Escherichia coli; test: Inhibition of Escherichia coli beta-glucuronidase using p-nitrophenyl glycoside as substrate assessed as release of p-nitrophenol at 1000 uM by spectrometric analysis relative to control
# [16] = organism: Bos taurus; test: Inhibition of bovine liver beta-glucuronidase using p-nitrophenyl glycoside as substrate assessed as release of p-nitrophenol at 1000 uM by spectrometric analysis relative to control
# [17] = Inhibition of human liver Alpha-mannosidase
SMILES,inhibition [1] [%],inhibition [2] [%],inhibition [3] [%],inhibition [4] [%],inhibition [5] [%],inhibition [6] [%],inhibition [7] [%],inhibition [8] [%],inhibition [9] [%],inhibition [10] [%],inhibition [11] [%],inhibition [12] [%],inhibition [13] [%],inhibition [14] [%],inhibition [15] [%],inhibition [16] [%],IC50 [17] [nM]
O[C@@H]1[C@@H]2[C@H](O)CCCN2C[C@@H]1O,3.4,0,0,0,1,0,3.1,0,0,2.8,11.7,0,11.4,58,0,8.8,
O[C@@H]1[C@@H]2[C@@H](O)CC(F)(F)CN2C[C@@H]1O,0,0,0,0,10.5,38.5,0,0,,28.2,0,28.4,10.9,2.2,0,14.1,
OC[C@H]1[C@@H](O)[C@@H](O)CN1Cc1ccc(I)cc1,,,,,,,,,,,,,,,,,90
O[C@@H]1[C@@H]2[C@H](O)CC(F)(F)CN2C[C@@H]1O,0,0,2.7,2.2,0,10.2,0.7,0,0.8,44.8,0,1.5,0.1,63,0,18.8,
CC(=O)NCCCC[C@H]1C[C@@H](O)[C@@H]2[C@H](O)[C@H](O)CN2C1,,,,,,,,,,,,,,,,,51000
O[C@@H]1[C@@H]2[C@H](O)C[C@@H](F)CN2C[C@@H]1O,4.5,23.5,11.6,0,4.7,9,3.4,0,15,18.8,1.7,11.7,11.4,125,0,0.1,
O[C@@H]1[C@@H]2[C@@H](O)C[C@@H](F)CN2C[C@@H]1O,6.2,27.3,47.3,15.6,0,25.6,43.5,0,21.7,1.6,1.7,36,2.3,5.2,9.3,,
OC[C@H]1[C@@H](O)[C@@H](O)CN1Cc1ccc(Br)cc1,,,,,,,,,,,,,,,,,90
O[C@@H]1[C@@H]2[C@H](O)C[C@H](F)CN2C[C@@H]1O,18,0,,37.6,3.2,38.5,,0,41.7,0,0,0.5,10.9,52,28.9,,
Cc1ccc(C(=O)C[C@H]2CC[C@@H](O)[C@@H]3[C@H](O)[C@H](O)CN23)cc1,,,,,,,,,,,,,,,,,29000
O[C@H]1[C@H]2[C@H](O)CCCN2C[C@H]1O [TRIDOLGOSIR],0,31.2,13.1,0,2.1,11.5,0,0,5.8,0.28,0,1,8.6,34.2,0,8.8,280
O[C@H]1[C@H]2[C@@H](O)C[C@@H](F)CN2C[C@H]1O,6.2,14,10.9,5.3,5.3,19.9,17.3,0,29.2,14.4,3.3,4.6,1.4,118,4.1,15.1,
